{
  "source": "patent US10220025B1",
  "about": "“Self-emulsifying formulation of CARP-1 functional mimetics” (Florida A&M University, priority 2016, dated 2019)",
  "key": {"[1]": {"system": "HeLa cervical cancer cells", "test": "MTT viability assay, HeLa", "assay_type": "cell-based", "conditions": "20 μM; 24 h; FIG. 3A", "description": "The current inventors' previous studies have indicated cancer cell growth inhibitory properties of CFMs in particular CFM-4 and CFM-5 [Puliyappadamba et al.]. […] J. Biomed. Nanotechnol. 2015; 11:1608-1627]. […] J. Biomed. Nanotechnol. 2015; 11:1608-1627]. On the basis of these findings, it was speculated that solubility and/or potency of the CFM-4 scaffold could be improved for its utility as a novel anti-TNBC molecule. To address this possibility, twelve (12) additional analogs of CFM-4 (Table 2) were synthesized using medicinal chemistry based structure activity relationship (SAR) studies. Each of the analog was suspended in DMSO, and their potency was evaluated in cell culture studies utilizing HeLa cervical cancer, MDA-MB-468 TNBC, and H2461 malignant pleural mesothelioma (MPM) cells by MTT based assays. […] Moreover, a 10 μM dose of CFM-4 inhibited MDA-MB-231 and MDA-MB-468 viabilities by ˜30% and 45%, respectively."}, "[2]": {"system": "Src, MET, and STAT3 kinases in TNBC cells", "test": "Western blot, oncogenic tyrosine kinases", "assay_type": "cell-based", "experimental": "(§1) For protein expression analysis, Western blot (WB) experiments were performed according to the standard procedures. The cells were either untreated or treated with various agents either alone or in combinations as indicated. Following treatment durations, the cells were lysed in cell lysis (10×) buffer (#9803; cell signaling) containing 0.1% of protease and phosphatase inhibitor cocktail (Sigma) for 20 min at 4° C. The lysates were centrifuged at 14,000 rpm at 4° C. for 15-20 min to remove debris. Protein concentrations of whole cell lysates were determined using the Protein Assay Kit. Supernatant proteins, 50-100 μg from each sample, were separated by SDS-polyacrylamide gel electrophoresis (SDS-PAGE) and transferred to polyvinylidene difluoride (PVDF) membrane (Bio-rad, Hercules, Calif.) by standard procedures. […] The antibody-bound proteins were visualized by treatment with the chemiluminescence detection reagent according to manufacturer's instructions, followed by exposure to X-ray film (Denville Scientific Inc.). The same membranes were re-probed with the anti-β-actin or anti-α-tubulin antibody, which was used as an internal control for protein loading."}, "[3]": {"system": "parental and drug-resistant human TNBC cells", "description": "Control cells were treated with 0.1% DMSO in culture medium."}, "TNBC cells": {"system": "TNBC cells", "test": "MTT viability assay, parental TNBC cells (lines not singled out)", "assay_type": "cell-based", "experimental": "In vitro inhibition of cell growth was assessed by MTT (3-[4, 5-dimethyltiazol-2-yl]-2.5-diphenyl tetrazolium bromide) reagent. Cells (5×10^3) were seeded in a 96-well culture plate and subsequently treated with respective agents at different concentrations as mentioned. Control cells were treated with 0.1% DMSO in culture medium. After treatment, the cells were incubated with 1 mg/ml of MTT reagent at 37° C. for 2-4 hours and then MTT was removed and 50 μL of DMSO was added, followed by colorimetric analysis using a multi-label plate reader at 560 nm (Victor3; PerkinElmer, Wellesley, Mass., USA)."}, "[4]": {"test": "pharmacokinetic study of CFM-4.16 NLF and free drug (Study 2)", "assay_type": "in vivo, Sprague Dawley Rats", "conditions": "rats; 40 mg/kg orally", "description": "J. Biomed. Nanotechnol. 2015; 11:1608-1627]. Briefly, rats were fasted overnight prior to the start of experiments and randomly divided into three experimental groups receiving CFM-4.16 FD and CFM-4.16 NLF at 40 mg/kg orally and CFM-4.16 solution (CFM-4.16 sol) at 5 mg/kg by intravenous route. After the drug administration, blood samples (250 μl) were withdrawn from tail veins at 0, 0.25, 0.5, 1, 2, 4, 6, 8, 12 and 24 h, and collected directly into heparinized microvet blood collection tubes and plasma was obtained by centrifugation at 10,000 rpm for 10 min. The plasma samples were stored at −80° C. until needed for analysis. CFM-4.16 was extracted from the plasma by protein precipitation method and extracted samples were dissolved in mobile phase and samples were analyzed by HPLC. Oral bioavailability of CFM-4.16 FD and CFM-4.16 NLF along with their pharmacokinetic parameters such as area under curve (AUC), Cmax, t½, and tmax were estimated using non-compartmental techniques with WinNonlin® 5.0 software (Pharsight Corporation, Mountain View, Calif., USA)."}, "solubility observations": {"test": "solubility observations", "assay_type": "physicochemical"}, "[5]": {"system": "CARP-1, cyclin B1, cleaved PARP, caspase-8, p38, MKK4, JNK1/2 in TNBC cells", "test": "Western blot, apoptosis and SAPK signaling", "assay_type": "cell-based", "experimental": "as §1"}, "[6]": {"system": "parental and drug-resistant TNBC and SKBR-3 cells", "test": "soft-agar clonogenic assay", "assay_type": "cell-based", "conditions": "10 μM; FIGS. 11D, 12C, 12D, 13C", "description": "A soft-agar sandwich assay was performed. Cells were sandwiched between 0.6% and 0.3% agarose in DMEM medium containing 5% FBS in a six-well chamber (500 cells/chamber), and treated with buffer (Control), or respective agent for noted time and dose at 37° C. humidified CO2 incubator. The colonies from multiple random fields were counted, compared to control and photographed essentially as described before [Jamal S, Cheryan V T, Muthu M, Munie S, Levi E, Ashour A E, Pass H I, Wali A, Singh M, Rishi A K. CARP-1 functional mimetics are a novel class of small molecule inhibitors of malignant pleural mesothelioma cells. PLos One. 2014; 9:e891; Ashour A E, Jamal S, Cheryan V T, Muthu M, Zoheir K M A, Alafeefy A M, Abd-allah A R, Levi E, Tarca A L, Polin L A, Rishi A K. CARP-1 functional mimetics: A novel class of small molecule inhibitors of medulloblastoma cell growth. PLoS One. 2013; 8:e66733; Zhang L, Levi E, Majumder P, Yu Y, Aboukameel A, Du J, Xu H, Mohammad R M, Hatfield J S, Wali A, Adsay V, Majumdar A P N, Rishi A K. Transactivator of transcription tagged cell cycle and apoptosis regulatory protein-1 peptides suppress growth of human breast cancer cells in vitro and in vivo. Mol Cancer Ther. 2007; 6:1661-1672]."}, "[7]": {"system": "drug-resistant TNBC cells", "test": "MTT viability assay, drug-resistant TNBC sublines (not singled out)", "assay_type": "cell-based", "conditions": "12 h; FIGS. 4A-4E", "description": "Human TNBC MDA-MB-468 and MDA-MB-231, and mouse TNBC 4T1 cells were cultured in the chronic presence (>10 months) of Doxorubicin. The parental, wild-type cells were initially treated with 200 nM Doxorubicin for 2-3 weeks, followed by escalation to 400 nM, 1 μM, and 2 μM doses over a period of 3-4 weeks for each dose till resistance developed and the cells became well adapted to growth in […] of Doxorubicin for their routine culture. In the case of Cisplatin however, the human TNBC MDA-MB-468 and MDA-MB-231 were initially cultured in continuous presence of 1 μM Cisplatin for 3-4 weeks, and the dose was escalated to 1.5 μM and 3 μM over periods of 3-4 weeks for each dose till resistance developed and cells became adapted to routine culture in 3 μM dose. Subsequent, routine maintenance of the resistant cells in the presence of the respective drug was continued and multiple, resistant sublines for each of the TNBC cells were isolated and characterized for their growth inhibitory (GI)50 dose of respective therapeutic by the MTT-based viability assays as below."}},
  "data": [
    {"smiles": "O=C1N(Cc2ccccc2Cl)c2ccccc2C12NN=C(c1cccc(Cl)c1)S2", "note": "(stereo not shown) [CFM-4.16]", "values": [
      {"measurement": "inhibition of viability compared with CFM-4", "setting": "[1]", "result": "greater inhibition of viability"},
      {"measurement": "activation of STAT3", "setting": "[2]; ADR as well as Cisplatin-resistant human TNBC cells, FIGS. 7A and 8C", "result": "robustly attenuated"},
      {"measurement": "activation and/or expression of MET and Src tyrosine kinases", "setting": "[2]; parental and drug-resistant human and murine TNBC cells", "result": "reduced activation and/or expression"},
      {"measurement": "loss of viability, CFM-4.16 alone", "setting": "[3]", "result": "45-55%"},
      {"measurement": "CC50", "setting": "TNBC cells", "result": "7 to 8", "unit": "µM"},
      {"measurement": "effect on ADR-mediated inhibition of viability", "setting": "TNBC cells; 5 μM each, combination, 6 h, FIG. 3C", "result": "enhanced ADR-mediated inhibition of viability"},
      {"measurement": "loss of cell viability compared with ADR-treated cell line", "setting": "TNBC cells; 5 μM, 6 h, FIG. 3C", "result": "greater loss of cell viability"},
      {"measurement": "growth of wild-type TNBC cells", "setting": "TNBC cells; 12 h, FIGS. 4A-4E", "result": "inhibited growth"},
      {"measurement": "activity relative to parent compound CFM-4 or other analogs", "setting": "TNBC cells; SAR screen of twelve analogs", "result": "superior"},
      {"measurement": "GI50", "setting": "TNBC cells; read-out: dose for inhibition of TNBC cells growth by 50% (GI50)", "result": "~2", "unit": "µM"},
      {"measurement": "AUC", "setting": "[4]", "result": "21070 ± 4200", "unit": "ng·h/mL"},
      {"measurement": "plasma Cmax concentration", "setting": "[4]", "result": "1190 ± 35", "unit": "ng/mL"},
      {"measurement": "aqueous solubility", "setting": "solubility observations", "result": "poor aqueous solubility"},
      {"measurement": "behaviour of DMA solution on addition of water", "setting": "solubility observations", "result": "immediately got precipitated"},
      {"measurement": "lipid solubility", "setting": "solubility observations", "result": "good lipid solubility"},
      {"measurement": "apoptosis and SAPK markers in parental and drug-resistant TNBC cells", "setting": "[5]; FIGS. 5A-5C, 6A-6D", "result": "activated pro-apoptotic SAPKs p38α/β and JNK1/2, caspase-8, while causing cleavage of PARP and decline in mitotic cyclin B1 levels"},
      {"measurement": "activation of pro-apoptotic SAPKs in comparison with CFM-4", "setting": "[5]; parental and resistant TNBC cells, FIG. 5C", "result": "rather robust activation of both the pro-apoptotic SAPKs"},
      {"measurement": "colonies formed in soft agar", "setting": "[6]", "result": "significant reduction in size and number of colonies"},
      {"measurement": "growth of ADR or Cisplatin-resistant TNBC sublines", "setting": "[7]", "result": "effectively inhibited growth"}
    ]}
  ]
}
